{"source": "paper PMC6253949", "about": "“The Inhibitory Action of Kohamaic Acid A Derivatives on Mammalian DNA Polymerase β” (Molecules, 2008)", "key": {"[1]": {"target": "T1, Human DNA polymerase δ (Homo sapiens, UniProt P28340)", "T1 construct": "Human pols δ and ε were purified by the nuclear fractionation of human peripheral blood cancer cells (Molt-4); endogenous in cells; host or cells: Molt-4", "T1 sequence (P28340 1-1107)": "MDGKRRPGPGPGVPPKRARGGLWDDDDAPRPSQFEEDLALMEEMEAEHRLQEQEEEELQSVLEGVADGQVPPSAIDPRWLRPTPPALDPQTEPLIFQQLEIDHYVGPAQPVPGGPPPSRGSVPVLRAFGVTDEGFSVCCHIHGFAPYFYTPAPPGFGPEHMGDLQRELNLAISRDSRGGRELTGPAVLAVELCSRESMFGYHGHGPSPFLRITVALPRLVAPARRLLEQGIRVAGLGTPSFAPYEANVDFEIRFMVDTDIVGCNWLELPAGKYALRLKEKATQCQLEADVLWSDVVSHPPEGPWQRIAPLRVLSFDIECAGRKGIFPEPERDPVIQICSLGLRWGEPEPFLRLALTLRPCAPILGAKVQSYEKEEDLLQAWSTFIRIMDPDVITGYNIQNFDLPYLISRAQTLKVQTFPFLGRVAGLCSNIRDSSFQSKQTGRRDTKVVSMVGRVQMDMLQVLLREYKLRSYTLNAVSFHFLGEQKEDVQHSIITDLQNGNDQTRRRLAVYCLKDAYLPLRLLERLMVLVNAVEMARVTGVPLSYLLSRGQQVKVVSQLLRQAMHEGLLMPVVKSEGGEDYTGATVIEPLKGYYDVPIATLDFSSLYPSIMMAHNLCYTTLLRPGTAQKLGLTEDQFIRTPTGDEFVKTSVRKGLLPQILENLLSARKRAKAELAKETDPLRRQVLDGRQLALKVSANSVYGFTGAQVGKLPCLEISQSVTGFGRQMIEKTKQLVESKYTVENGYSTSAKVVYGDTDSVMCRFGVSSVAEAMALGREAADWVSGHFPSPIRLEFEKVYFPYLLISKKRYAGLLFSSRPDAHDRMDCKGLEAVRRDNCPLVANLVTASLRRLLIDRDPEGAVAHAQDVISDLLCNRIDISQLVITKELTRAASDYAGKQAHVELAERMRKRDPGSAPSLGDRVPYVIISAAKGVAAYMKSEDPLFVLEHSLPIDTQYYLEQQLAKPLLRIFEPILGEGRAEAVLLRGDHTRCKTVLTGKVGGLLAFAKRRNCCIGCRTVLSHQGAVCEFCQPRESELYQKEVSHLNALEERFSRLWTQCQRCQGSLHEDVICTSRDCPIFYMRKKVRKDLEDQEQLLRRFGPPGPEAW", "experiment": "DNA polymerase assay, human pol δ", "format": "biochemical", "source_text": "(§1) Pol α was purified from calf thymus by immuno-affinity column chromatography as described by Tamai et al.. Recombinant rat pol β was purified from E. coli JMpβ5 as described by Date et al.. The human pol γ catalytic gene was cloned into pFastBac. Histidine-tagged enzyme was expressed using the BAC-TO-BAC HT Baculovirus Expression System according to the supplier's manual (LIFE TECHNOLOGIES, MD, USA) and purified using ProBoundresin (Invitrogen Japan, Tokyo, Japan). Human pols δ and ε were purified by the nuclear fractionation of human peripheral blood cancer cells (Molt-4) using the second subunit of pols δ and ε-conjugated affinity column chromatography, respectively. Recombinant human pols η and ι tagged with His6 at their C-terminal were expressed in SF9 insect cells using the baculovirus expression system, and were purified as described previously. A truncated form of pol κ (i.e., hDINB1DC) with 6 x His-tags attached at the C-terminal was overproduced using the BAC-to-BAC Baculovirus Expression System kit (GIBCO BRL, MD, USA) and purified as described previously. […]\n(§2) For pols, poly(dA)/oligo(dT)12-18 (A/T = 2/1) and dTTP were used as the DNA template-primer and nucleotide (i.e., dNTP) substrate, respectively. […] Activity without the inhibitor was considered 100%, and the remaining activity at each concentration of the inhibitor was determined relative to this value. […]"}, "[2]": {"target": "T2, Human DNA polymerase ε (Homo sapiens, UniProt Q07864)", "T2 construct": "Human pols δ and ε were purified by the nuclear fractionation of human peripheral blood cancer cells (Molt-4); endogenous in cells; host or cells: Molt-4", "T2 sequence (Q07864 whole entry)": "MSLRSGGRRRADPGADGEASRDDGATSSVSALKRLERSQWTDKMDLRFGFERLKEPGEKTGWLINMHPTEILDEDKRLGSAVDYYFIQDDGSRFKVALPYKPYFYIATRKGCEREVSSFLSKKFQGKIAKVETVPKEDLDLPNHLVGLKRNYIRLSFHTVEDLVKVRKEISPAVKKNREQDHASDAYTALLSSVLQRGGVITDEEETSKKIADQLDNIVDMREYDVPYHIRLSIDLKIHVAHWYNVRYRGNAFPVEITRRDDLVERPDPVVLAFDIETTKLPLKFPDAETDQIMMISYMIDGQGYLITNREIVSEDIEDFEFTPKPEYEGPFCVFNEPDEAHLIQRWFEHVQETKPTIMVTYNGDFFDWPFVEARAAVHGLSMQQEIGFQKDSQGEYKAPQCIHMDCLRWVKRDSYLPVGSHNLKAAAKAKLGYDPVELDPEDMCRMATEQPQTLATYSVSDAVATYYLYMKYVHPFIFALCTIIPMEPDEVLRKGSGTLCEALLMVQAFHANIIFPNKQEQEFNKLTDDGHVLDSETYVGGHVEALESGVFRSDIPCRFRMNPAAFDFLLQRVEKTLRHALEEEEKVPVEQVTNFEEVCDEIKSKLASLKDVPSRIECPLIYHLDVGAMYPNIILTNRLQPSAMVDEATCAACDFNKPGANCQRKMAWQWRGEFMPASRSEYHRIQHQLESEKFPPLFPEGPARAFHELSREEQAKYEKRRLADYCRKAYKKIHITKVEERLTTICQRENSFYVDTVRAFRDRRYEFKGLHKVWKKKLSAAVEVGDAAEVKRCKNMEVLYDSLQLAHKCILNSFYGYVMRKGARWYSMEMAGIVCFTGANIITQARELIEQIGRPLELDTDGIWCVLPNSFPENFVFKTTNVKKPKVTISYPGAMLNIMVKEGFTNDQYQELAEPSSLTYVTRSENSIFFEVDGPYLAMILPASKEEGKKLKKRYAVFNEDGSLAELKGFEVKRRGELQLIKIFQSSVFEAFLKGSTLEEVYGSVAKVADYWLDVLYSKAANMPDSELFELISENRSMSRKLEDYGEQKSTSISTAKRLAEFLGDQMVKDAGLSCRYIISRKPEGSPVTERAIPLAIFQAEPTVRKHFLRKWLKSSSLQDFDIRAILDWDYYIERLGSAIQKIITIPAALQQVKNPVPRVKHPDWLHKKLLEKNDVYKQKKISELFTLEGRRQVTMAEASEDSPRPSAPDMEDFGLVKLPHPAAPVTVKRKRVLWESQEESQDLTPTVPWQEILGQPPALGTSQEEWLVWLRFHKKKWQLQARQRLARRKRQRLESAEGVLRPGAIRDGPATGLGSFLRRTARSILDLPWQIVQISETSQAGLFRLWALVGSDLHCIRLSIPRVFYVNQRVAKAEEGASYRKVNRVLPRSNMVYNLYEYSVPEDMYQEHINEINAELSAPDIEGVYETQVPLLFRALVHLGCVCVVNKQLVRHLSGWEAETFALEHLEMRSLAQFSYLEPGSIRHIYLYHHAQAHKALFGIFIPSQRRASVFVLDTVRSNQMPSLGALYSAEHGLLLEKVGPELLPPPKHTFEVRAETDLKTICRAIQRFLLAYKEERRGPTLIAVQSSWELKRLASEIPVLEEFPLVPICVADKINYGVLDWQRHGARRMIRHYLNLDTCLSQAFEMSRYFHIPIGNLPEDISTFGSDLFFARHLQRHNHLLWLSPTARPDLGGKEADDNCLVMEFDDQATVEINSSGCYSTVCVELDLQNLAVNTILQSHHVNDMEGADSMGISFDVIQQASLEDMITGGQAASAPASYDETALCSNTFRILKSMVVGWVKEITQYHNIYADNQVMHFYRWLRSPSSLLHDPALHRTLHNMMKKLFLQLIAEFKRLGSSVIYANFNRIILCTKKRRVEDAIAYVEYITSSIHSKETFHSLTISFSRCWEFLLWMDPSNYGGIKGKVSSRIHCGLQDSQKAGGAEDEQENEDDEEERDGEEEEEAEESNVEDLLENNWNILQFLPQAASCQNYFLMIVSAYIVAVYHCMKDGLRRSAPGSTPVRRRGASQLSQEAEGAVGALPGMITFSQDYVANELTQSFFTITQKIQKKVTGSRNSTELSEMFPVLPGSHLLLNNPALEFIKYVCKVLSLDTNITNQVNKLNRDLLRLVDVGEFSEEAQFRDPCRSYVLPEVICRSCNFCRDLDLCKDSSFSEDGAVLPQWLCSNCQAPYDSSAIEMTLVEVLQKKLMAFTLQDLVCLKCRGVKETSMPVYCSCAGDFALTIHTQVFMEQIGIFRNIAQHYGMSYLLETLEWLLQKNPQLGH", "experiment": "DNA polymerase assay, human pol ε", "format": "biochemical", "source_text": "as §1, §2"}}}
{"smiles": "CC1=CC[C@H]2C(C)(C)CCC[C@]2(C)[C@H]1CCCCCCCCCCCCCCCCC(=O)O", "note": "(relative stereo) [compound 11, (1S*,4aS*,8aS*)-17-(1,4,4a,5,6,7,8,8a-octahydro-2,5,5,8a-tetramethylnaphthalen-1-yl)heptadecanoic acid]", "values": [{"measurement": "IC50", "setting": "[1]", "value": "4.89 ± 0.24", "unit": "µM"}, {"measurement": "IC50", "setting": "[2]", "value": "3.22 ± 0.16", "unit": "µM"}]}
